In patent US20070275425A1, “Device and method for analysis of a metabolic malady” (priority 2004, published 2007):

Tests used:
[1] = Fasting glucose test of treated ZDF rats; format: in vivo, rat; conditions: obese ZDF rats, 10 mg/kg oral gavage five times a week for 20 days; untreated group 242.25 (SD 14.58); treated SD 14.29
Method: (§1) Whole blood samples were obtained from a group of four obese ZDF rats treated with an anti-diabetic drug, Rosiglitazone (10 mg/kg), administered by oral gavage five times a week for 20 days and a group of four untreated obese ZDF rats induced with a saline solution administered by oral gavage five times a week for 20 days.
The values of the average number of lipid bodies and average lipid body area correspond to results of a fasting glucose test of the untreated and treated subjects.

[2] = system: lipid bodies in neutrophil cells of ZDF rats; assay: Lipid bodies per neutrophil cell of leukocyte samples (SEM) from obese ZDF rats treated with anti-diabetic drug; format: in vivo, rat; conditions: 10 mg/kg oral gavage five times a week for 20 days
Method: as §1
A whole blood sample was collected in tubes including a solution of heparin. One hour after drawing the whole blood sample from each rat, approximately 75 microliters of whole blood was mixed with 600 microliters of ddH2O and incubated at a temperature of approximately 25° C. for approximately 30 seconds. Then 75 microliters of 10×PBS was added.
Following incubation, the sample was centrifuged at a speed of approximately 1200 rpm for approximately five minutes. Thereafter, resulting supernatant was removed from the leukocyte sample. Approximately 400 microliters of PBS including 0.89 mM calcium and 0.49 mM magnesium was added to the leukocyte sample. The sample was centrifuged again at a speed of approximately 1200 rpm for approximately five minutes. Thereafter, resulting supernatant was removed from the leukocyte sample. Approximately 400 microliters of PBS including 0.89 mM calcium and 0.49 mM magnesium was added to the leukocyte sample. […]

CN(CCOc1ccc(CC2SC(=O)NC2=O)cc1)c1ccccn1 (stereo not drawn) [Rosiglitazone]
fasting glucose [1]: 110.13 mg/dL | average lipid body area per neutrophil cell of a leukocyte sample ([2]; untreated group 1.04 (SD 0.1), treated SD 0.06): approximately 0.65 μm^2 | average number of lipid bodies per neutrophil cell of a leukocyte sample ([2]; untreated group 7.03 (SD 0.83), treated SD 0.24): approximately 4.09
